Test results: patent US20080318954A1, “Compounds” (Cyclacel Limited, priority 2004, published 2008)

Experiments:
Format in all cases: biochemical
CDK1/cyclin B1 = biological target: T1, CDK1/cyclin B1 (Homo sapiens, UniProt P06493); assay: CDK/cyclin kinase assay, CDK1/cyclin B1
T1 construct: His6 (N); made in house; host or cells: Sf9 insect cells (baculovirus)
Procedure: (§1) CDK4/cyclin D1, CDK1/cyclin B, CDK2/cyclin E, CDK2/cyclin A, CDK9/cyclin T1 and CDK7/cyclin H, all with a His6 tag on the N-terminus, were expressed in Sf9 insect cells using an appropriate baculovirus construct. Sf9 culture (1.6×10^6 cells/mL) was infected (MOI of 3) for two days. The cells were harvested by low speed centrifugation and the protein was purified from the insect cell pellet by metal affinity chromatography. In short: the insect cell pellet was lysed in Buffer A (10 mM Tris-HCl pH 8.0, 150 mM NaCl, 0.02% NP-40, 5 mM β-mercaptoethanol, 20 mM NaF, 1 mM Na3VO4, and Sigma Protease Inhibitor Cocktail) by sonication. The soluble fraction was cleared by centrifugation and loaded onto Ni-NTA-Agarose (Qiagen). Non-bound protein was washed off with 300 mM NaCl, 5-15 mM imidazole in buffer A and the bound protein was eluted with buffer A supplemented with 250 mM imidazole. The purified proteins were extensively dialyzed against storage buffer (20 mM HEPES pH 7.4, 50 mM NaCl, 2 mM DTT, 1 mM EDTA, 1 mM EGTA, 0.02% NP-40, 10% v/v glycerol) and stored at −70° C.
(§2) Compounds were investigated for their CDK2/cyclin E, CDK2/cyclin A, CDK1/cyclin B, and CDK4/cyclin D1 inhibitory activity. His6-tagged recombinant human cyclin-dependent kinases CDK1/cyclin B1, CDK2/cyclin E, CDK2/cyclin A, and CDK4 were expressed in sf9 insect cells using a baculovirus expression system. Recombinant cyclin D1 was expressed in E. coli. Proteins were purified by metal chelate affinity chromatography to greater than 90% homogeneity. Kinase assays were performed in 96-well plates using recombinant CDK/cyclins. Assays were performed in assay buffer (25 mM β-glycerophosphate, 20 mM MOPS, 5 mM EGTA, 1 mM DTT, 1 mM […], pH 7.4), into which were added 2-4 μg of active enzyme with appropriate substrates (purified histone H1 for CDK1 and CDK2, recombinant GST-retinoblastoma protein (residues 773-928) for CDK4). The reaction was initiated by addition of Mg/ATP mix (15 mM MgCl2+100 μM ATP with 30-50 kBq per well of [γ-^32P]-ATP) and mixtures incubated for 10-45 min, as required, at 30° C. Reactions were stopped on ice, followed by filtration through p81 or GF/C filterplates (for CDK4) (Whatman Polyfiltronics, Kent, UK). After washing 3 times with 75 mM aq orthophosphoric acid, plates were dried, scintillant added and incorporated radioactivity measured in a scintillation counter (TopCount, Packard Instruments, Pangbourne, Berks, UK). Compounds for kinase assays were made up as 10 mM stocks in DMSO and diluted into 10% DMSO in assay buffer. Data was analysed using curve-fitting software (GraphPad Prism version 3.00 for Windows, GraphPad Software, San Diego Calif. USA) to determine IC50 values (concentration of test compound which inhibits kinase activity by 50%).

CDK4/cyclin D1 = biological target: T2, CDK4/cyclin D1 (Homo sapiens, UniProt P11802); assay: CDK/cyclin kinase assay, CDK4/cyclin D1
T2 construct: His6 (N); made in house; host or cells: CDK4: Sf9 insect cells (baculovirus); Cyclin D1: E. coli, Sf9
Procedure: as §1, §2

CDK7/cyclin H = biological target: T3, CDK7/cyclin H (Homo sapiens, UniProt P50613); assay: CDK7/cyclin H inhibition constant
T3 construct: His6 (N); made in house; host or cells: Sf9 insect cells (baculovirus)
Procedure: as §1
Intrinsic inhibition constants (Ki) for example compound XIV against a number of Ser/Thr kinases were determined and are summarized in Table 3.

MAPK2/ERK2 = biological target: T4, MAPK2/ERK2 (Homo sapiens, UniProt P28482); assay: Protein kinase panel selectivity screen, MAPK2/ERK2; conditions: 1 μM compound; [ATP] 50 μM
T4 construct: Dundee University (panel)
Procedure: (§3) The names of the 29 kinases comprising the selectivity screen, as well as the ATP concentrations used in each kinase case, are given in Table 5. The kinase assays were carried out as described previously.
(§4) Compound XIV at a concentration of 1 μM was screened in the 29-kinase panel (Dundee University) and the results are shown bellow in Table 6.

SAPK2a/p38 = biological target: T5, SAPK2a/p38 (Homo sapiens, UniProt Q16539); assay: Protein kinase panel selectivity screen, SAPK2a/p38; conditions: 1 μM compound; [ATP] 50 μM
T5 construct: Dundee University (panel)
Procedure: as §3, §4

SAPK2b/p38b2 = biological target: T6, SAPK2b/p38b2 (Homo sapiens, UniProt Q15759); assay: Protein kinase panel selectivity screen, SAPK2b/p38b2; conditions: 1 μM compound; [ATP] 20 μM
T6 construct: Dundee University (panel)
Procedure: as §3, §4

SAPK4/p38d = biological target: T7, SAPK4/p38d (Homo sapiens, UniProt O15264); assay: Protein kinase panel selectivity screen, SAPK4/p38d; conditions: 1 μM compound
T7 construct: Dundee University (panel)
Procedure: as §3, §4

MAPKAP-K1a = biological target: T8, MAPKAP-K1a (Homo sapiens, UniProt Q15418); assay: Protein kinase panel selectivity screen, MAPKAP-K1a; conditions: 1 μM compound; [ATP] 50 μM
T8 construct: Dundee University (panel)
Procedure: as §3, §4

MAPKAP-K2 = biological target: T9, MAPKAP-K2 (Homo sapiens, UniProt P49137); assay: Protein kinase panel selectivity screen, MAPKAP-K2; conditions: 1 μM compound; [ATP] 20 μM
T9 construct: Dundee University (panel)
Procedure: as §3, §4

PRAK = biological target: T10, PRAK (Homo sapiens, UniProt Q8IW41); assay: Protein kinase panel selectivity screen, PRAK; conditions: 1 μM compound; [ATP] 20 μM
T10 construct: Dundee University (panel)
Procedure: as §3, §4

PKA = assay: Protein kinase panel selectivity screen, PKA; conditions: 1 μM compound; [ATP] 5 μM
Procedure: as §3, §4

PKCa = biological target: T11, PKCa (Homo sapiens, UniProt P17252); assay: Protein kinase panel selectivity screen, PKCa; conditions: 1 μM compound; [ATP] 20 μM
T11 construct: Dundee University (panel)
Procedure: as §3, §4

PDK1 = biological target: T12, PDK1 (Homo sapiens, UniProt O15530); assay: Protein kinase panel selectivity screen, PDK1; conditions: 1 μM compound; [ATP] 20 μM
T12 construct: Dundee University (panel)
Procedure: as §3, §4

SGK = biological target: T13, SGK (Homo sapiens, UniProt O00141); assay: Protein kinase panel selectivity screen, SGK; conditions: 1 μM compound; [ATP] 20 μM
T13 construct: Dundee University (panel)
Procedure: as §3, §4

p70S6K = assay: Protein kinase panel selectivity screen, p70S6K; conditions: 1 μM compound; [ATP] 20 μM
Procedure: as §3, §4

AMPK = assay: Protein kinase panel selectivity screen, AMPK; conditions: 1 μM compound; [ATP] 50 μM
Procedure: as §3, §4

CK2 = assay: Protein kinase panel selectivity screen, CK2; conditions: 1 μM compound; [ATP] 5 μM
Procedure: as §3, §4

CSK = biological target: T14, CSK (Homo sapiens, UniProt P41240); assay: Protein kinase panel selectivity screen, CSK; conditions: 1 μM compound; [ATP] 20 μM
T14 construct: Dundee University (screening panel)
Procedure: as §3, §4

NEK6 = biological target: T15, NEK6 (Homo sapiens, UniProt Q9HC98); assay: Protein kinase panel selectivity screen, NEK6; conditions: 1 μM compound; [ATP] 50 μM
T15 construct: Dundee University (screening panel)
Procedure: as §3, §4

T2 sequence (P11802 whole entry): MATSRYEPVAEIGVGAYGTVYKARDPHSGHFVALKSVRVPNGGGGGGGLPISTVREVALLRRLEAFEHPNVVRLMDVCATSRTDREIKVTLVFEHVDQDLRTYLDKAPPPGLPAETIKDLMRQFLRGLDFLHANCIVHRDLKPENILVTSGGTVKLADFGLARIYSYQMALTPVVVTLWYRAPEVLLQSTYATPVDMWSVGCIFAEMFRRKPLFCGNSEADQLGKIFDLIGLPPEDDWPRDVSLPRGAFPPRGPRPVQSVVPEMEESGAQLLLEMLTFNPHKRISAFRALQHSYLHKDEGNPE
T2 sequence (P24385 whole entry partner): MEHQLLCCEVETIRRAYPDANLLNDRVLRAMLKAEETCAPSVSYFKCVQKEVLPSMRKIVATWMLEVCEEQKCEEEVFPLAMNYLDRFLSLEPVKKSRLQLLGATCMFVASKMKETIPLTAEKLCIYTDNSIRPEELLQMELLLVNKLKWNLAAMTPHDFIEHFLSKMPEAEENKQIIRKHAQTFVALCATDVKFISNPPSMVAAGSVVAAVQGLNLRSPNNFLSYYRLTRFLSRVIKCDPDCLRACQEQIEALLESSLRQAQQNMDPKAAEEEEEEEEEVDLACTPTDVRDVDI
T1 sequence (P06493 whole entry): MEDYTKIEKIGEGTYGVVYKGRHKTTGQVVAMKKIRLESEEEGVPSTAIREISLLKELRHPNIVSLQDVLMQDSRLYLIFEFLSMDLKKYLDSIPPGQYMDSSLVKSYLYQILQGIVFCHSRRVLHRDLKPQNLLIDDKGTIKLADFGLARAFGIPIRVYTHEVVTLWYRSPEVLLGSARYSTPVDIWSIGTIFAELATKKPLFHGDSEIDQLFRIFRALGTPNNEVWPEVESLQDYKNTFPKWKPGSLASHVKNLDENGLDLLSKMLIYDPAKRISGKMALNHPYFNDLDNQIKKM
T1 sequence (P14635 whole entry partner): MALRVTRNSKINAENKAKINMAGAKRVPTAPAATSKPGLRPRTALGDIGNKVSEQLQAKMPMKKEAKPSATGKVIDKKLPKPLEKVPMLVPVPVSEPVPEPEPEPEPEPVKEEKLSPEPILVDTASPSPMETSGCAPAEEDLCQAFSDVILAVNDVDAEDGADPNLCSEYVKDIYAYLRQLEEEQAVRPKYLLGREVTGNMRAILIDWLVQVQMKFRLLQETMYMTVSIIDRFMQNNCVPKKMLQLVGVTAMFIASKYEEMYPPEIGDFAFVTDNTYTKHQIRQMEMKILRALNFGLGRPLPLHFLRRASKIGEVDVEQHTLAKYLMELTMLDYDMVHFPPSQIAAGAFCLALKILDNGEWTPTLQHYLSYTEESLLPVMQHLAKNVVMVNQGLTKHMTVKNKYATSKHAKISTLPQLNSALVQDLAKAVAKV
T3 sequence (P50613 whole entry, species assumed): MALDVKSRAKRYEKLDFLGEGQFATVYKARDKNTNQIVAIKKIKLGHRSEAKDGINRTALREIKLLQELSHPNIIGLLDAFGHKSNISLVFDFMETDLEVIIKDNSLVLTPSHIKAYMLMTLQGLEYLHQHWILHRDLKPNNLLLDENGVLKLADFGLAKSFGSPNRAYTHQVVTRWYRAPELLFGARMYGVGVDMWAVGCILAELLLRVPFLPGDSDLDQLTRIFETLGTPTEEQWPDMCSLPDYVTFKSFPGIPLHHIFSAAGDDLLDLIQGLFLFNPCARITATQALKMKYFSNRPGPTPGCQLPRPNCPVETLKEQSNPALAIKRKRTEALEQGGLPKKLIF
T3 sequence (P51946 whole entry partner, species assumed): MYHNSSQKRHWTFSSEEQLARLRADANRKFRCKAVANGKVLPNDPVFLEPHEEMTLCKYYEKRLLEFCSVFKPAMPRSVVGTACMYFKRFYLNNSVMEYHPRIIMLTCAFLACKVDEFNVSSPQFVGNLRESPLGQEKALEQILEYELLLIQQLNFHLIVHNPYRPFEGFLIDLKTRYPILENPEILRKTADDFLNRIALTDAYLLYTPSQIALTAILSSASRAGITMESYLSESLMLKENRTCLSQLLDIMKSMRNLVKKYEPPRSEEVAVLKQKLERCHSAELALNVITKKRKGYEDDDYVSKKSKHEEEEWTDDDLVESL
T7 sequence (O15264 whole entry): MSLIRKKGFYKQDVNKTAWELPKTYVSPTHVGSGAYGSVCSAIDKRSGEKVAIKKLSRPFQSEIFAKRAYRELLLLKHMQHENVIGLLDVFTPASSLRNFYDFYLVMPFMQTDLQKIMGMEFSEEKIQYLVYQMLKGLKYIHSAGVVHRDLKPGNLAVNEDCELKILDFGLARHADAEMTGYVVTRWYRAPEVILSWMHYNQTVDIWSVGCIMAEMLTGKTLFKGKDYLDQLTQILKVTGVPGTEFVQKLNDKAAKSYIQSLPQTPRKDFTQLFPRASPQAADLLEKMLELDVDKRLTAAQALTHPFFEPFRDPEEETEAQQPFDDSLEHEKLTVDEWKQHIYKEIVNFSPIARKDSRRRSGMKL
T10 sequence (Q8IW41 whole entry, species assumed): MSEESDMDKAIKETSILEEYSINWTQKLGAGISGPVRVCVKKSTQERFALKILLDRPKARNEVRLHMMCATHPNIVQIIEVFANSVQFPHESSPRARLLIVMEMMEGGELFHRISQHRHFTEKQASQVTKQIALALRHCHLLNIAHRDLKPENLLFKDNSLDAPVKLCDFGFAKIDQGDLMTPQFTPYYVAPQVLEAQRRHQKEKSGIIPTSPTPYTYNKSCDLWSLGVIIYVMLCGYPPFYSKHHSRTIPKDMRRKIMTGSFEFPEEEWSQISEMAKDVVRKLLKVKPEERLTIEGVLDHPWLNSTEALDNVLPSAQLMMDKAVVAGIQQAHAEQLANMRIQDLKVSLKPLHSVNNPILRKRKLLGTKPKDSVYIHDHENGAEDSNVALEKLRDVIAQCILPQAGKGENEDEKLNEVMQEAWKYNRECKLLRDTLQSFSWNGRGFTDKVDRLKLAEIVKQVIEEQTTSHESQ
T14 sequence (P41240 whole entry, species assumed): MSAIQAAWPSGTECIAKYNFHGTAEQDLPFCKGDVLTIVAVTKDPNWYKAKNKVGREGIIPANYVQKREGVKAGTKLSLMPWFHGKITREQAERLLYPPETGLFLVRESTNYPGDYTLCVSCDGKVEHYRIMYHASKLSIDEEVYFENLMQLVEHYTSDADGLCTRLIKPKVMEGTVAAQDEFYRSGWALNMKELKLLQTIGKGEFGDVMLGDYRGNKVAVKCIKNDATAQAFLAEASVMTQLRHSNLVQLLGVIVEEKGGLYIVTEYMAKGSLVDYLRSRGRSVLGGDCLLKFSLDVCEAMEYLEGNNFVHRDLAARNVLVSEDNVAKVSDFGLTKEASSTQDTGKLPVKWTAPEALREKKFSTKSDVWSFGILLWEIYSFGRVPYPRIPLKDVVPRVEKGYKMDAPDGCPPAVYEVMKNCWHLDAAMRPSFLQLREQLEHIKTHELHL
T6 sequence (Q15759 whole entry): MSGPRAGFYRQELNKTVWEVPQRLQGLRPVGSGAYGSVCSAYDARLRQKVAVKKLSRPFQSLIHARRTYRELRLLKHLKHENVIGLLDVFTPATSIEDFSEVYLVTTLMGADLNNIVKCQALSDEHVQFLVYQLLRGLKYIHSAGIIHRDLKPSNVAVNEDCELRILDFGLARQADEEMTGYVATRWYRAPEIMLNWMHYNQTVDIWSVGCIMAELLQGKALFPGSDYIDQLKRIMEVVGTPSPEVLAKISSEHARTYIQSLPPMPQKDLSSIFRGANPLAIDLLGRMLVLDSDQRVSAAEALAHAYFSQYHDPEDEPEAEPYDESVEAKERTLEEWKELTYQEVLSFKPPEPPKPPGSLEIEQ
T13 sequence (O00141 whole entry, species assumed): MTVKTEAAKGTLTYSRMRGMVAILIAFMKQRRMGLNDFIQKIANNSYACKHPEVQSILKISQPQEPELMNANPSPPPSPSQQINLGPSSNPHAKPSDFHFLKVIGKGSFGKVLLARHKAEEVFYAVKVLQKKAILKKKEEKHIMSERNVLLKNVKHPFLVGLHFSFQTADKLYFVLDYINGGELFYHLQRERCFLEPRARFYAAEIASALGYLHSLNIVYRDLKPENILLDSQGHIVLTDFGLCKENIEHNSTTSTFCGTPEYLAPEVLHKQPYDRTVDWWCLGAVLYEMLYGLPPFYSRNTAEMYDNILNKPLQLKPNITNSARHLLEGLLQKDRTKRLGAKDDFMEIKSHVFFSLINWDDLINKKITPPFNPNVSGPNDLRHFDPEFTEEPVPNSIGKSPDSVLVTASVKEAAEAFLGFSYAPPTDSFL
T15 sequence (Q9HC98 whole entry, species assumed): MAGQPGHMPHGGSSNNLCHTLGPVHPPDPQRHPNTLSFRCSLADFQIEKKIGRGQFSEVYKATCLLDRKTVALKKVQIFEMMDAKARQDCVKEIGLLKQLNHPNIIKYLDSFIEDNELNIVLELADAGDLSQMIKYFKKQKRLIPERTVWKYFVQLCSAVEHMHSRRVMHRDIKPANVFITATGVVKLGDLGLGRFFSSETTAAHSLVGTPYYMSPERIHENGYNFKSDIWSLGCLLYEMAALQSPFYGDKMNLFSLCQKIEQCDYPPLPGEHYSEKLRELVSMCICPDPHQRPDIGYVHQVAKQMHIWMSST
T9 sequence (P49137 whole entry, species assumed): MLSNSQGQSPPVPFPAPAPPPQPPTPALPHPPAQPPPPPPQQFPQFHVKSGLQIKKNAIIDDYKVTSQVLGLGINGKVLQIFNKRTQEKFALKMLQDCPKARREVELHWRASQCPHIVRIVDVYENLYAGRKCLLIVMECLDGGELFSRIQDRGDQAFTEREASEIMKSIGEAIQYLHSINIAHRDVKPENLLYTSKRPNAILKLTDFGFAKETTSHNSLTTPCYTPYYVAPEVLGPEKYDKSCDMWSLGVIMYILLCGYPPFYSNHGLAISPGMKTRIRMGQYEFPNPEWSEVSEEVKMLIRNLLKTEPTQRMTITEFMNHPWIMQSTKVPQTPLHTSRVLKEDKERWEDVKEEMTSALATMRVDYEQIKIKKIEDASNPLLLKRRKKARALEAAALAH

## Clc1ccc(Nc2nccc(-c3nccs3)n2)cn1 [Compound XIV, (6-Chloro-pyridin-3-yl)-(4-thiazol-2-yl-pyrimidin-2-yl)-amine]
CDK1/cyclin B1; from Ki
  Fold selectivity for GSK3 over CDK1/cyclin B: >6,250 fold
CDK1/cyclin B1; read-out: Ki CDK1/cyclin B
  Ki: > 100 µM
CDK1/cyclin B1; read-out: Kinase inhibition IC50 CDK1/B1
  IC50: > 100 µM
CDK4/cyclin D1
  Ki: > 100 µM
CDK4/cyclin D1; from Ki
  Fold selectivity for GSK3 over CDK4/cyclin D1: >6,250 fold
CDK4/cyclin D1; read-out: Kinase inhibition IC50 CDK4/D1
  IC50: > 100 µM
CDK7/cyclin H
  Ki: > 50 µM
CDK7/cyclin H; from Ki
  Fold selectivity for GSK3 over CDK7/cyclin H: >3,125 fold
MAPK2/ERK2
  activity at 1 µM: 84 ± 8%
SAPK2a/p38
  activity at 1 µM: 84 ± 7%
SAPK2b/p38b2
  activity at 1 µM: 92 ± 4%
SAPK4/p38d
  inhibition at 1 µM: ~40%
SAPK4/p38d; [ATP] 5 μM
  activity at 1 µM: 91 ± 9%
MAPKAP-K1a
  activity at 1 µM: 60 ± 1%
MAPKAP-K2
  activity at 1 µM: 86 ± 7%
PRAK
  activity at 1 µM: 83 ± 3%
PKA
  % Activity PKA: 76 ± 3%
PKCa
  activity at 1 µM: 76%
PDK1
  activity at 1 µM: 85 ± 5%
SGK
  activity at 1 µM: 79 ± 4%
p70S6K
  % Activity p70S6K: 91 ± 2%
AMPK
  % Activity AMPK: 82 ± 5%
CK2
  % Activity CK2: 84 ± 1%
CSK
  activity at 1 µM: 93 ± 8%
NEK6
  activity at 1 µM: 87 ± 6%
